Measurements published in patent US20070148220A1, “Liposomes and liposomal compositions for vaccination and drug delivery” (priority 2003, published 2007).

How the values were obtained:
[1] = test system: B16.F1 and TRP-2 pulsed EL4; assay: CTL cytotoxicity against TRP-2 presenting cells after immunization; type: in vivo, mouse; settings: free versus liposomal
Protocol: In another set of experiments antigen-specificity of cytotoxic T lymphocytes after liposomal vaccination (FIG. 20) was analyzed. Mice were immunized with AVE3-encapsulated or free TRP-2 and CpG-PTO as described above. Cells prepared from lymph nodes were then tested for cytotoxicity using as targets the mouse melanoma cell line B16.F1 know to present TRP-2 in the context of H-2K^b, TRP-2 pulsed EL4 cells, OVA peptide-pulsed EL4 cells, unpulsed EL4 cells, and YAC-1 cells to exclude a potential NK cell activity. […] As described above 10-fold higher amounts of free TRP-2 and 4-fold higher amounts of CpG-PTO were necessary to induce the same CTL response.

[2] = test system: TRP-2-specific T cells (splenocytes); assay: Avidity of TRP-2-specific T cells (splenocyte proliferation, ATPlite); type: in vivo, BL6 mice; settings: after two immunizations
Protocol: FIG. 22: Vaccination with liposomal-encapsulated TRP-2 plus CpG-PTO. The vaccination with liposomal-encapsulated TRP-2 plus CpG-PTO generates high avidity T cells. BL6 mice were vaccinated with 10 μg liposomal or 100 μg free TRP-2 plus 5 nmol free CpG ODN at weekly intervals up to three times. Lymphocytes were isolated from spleen (A) and lymph node (LN) (B) one week after last immunization and an IFNγ capture assay was performed as described. C, Avidity of T cells after vaccination with liposomal and free TRP-2 plus CpG ODN. One week after the last immunization splenocytes were nylon-wool enriched and cultured for 5 days in vitro in the presence of high dose (10^−6 mol/l) or low dose TRP-2 (10^−9 mol/l) or control peptide […] (10^−6 mol/l) with low dose IL2 (30 U/ml). Proliferation was estimated by a luminescence assay-based detection system measuring ATP content. Proliferation of splenocytes in the presence of anti-TCR plus anti-CD28 mAb was set to 100%. Representative data from one of two similar experiments are shown.
Finally, the avidity of TRP-2-specific CTLs in animals immunized with liposomal or free TRP-2, respectively (FIG. 21) was compared. […] In parallel to the IFNγ secretion assay nylon-wool column enriched splenocytes were cultured with high (10^−6 mol/l) and low dose TRP-2 (10^−9 mol/l), for 5 days and cell proliferation was determined using the ATPlite™-M system. […]

[3] = test system: murine B cells; assay: Induction of B cell proliferation (CFSE); type: cell-based; settings: ODN 5 to 200 nmol/l, free or AVE3-encapsulated
From the text: FIG. 12: Comparison of the biological activity of CpG-PTO and CpG-PDO. Cells were labeled with CFSE before being stimulated for 48 hrs with 0 to 0.2 μmol/l end concentration of ODNs in saline or liposomal. (black diamonds) CpG-PTO in saline; (grey diamonds) CpG-PDO in saline; (black squares) liposomal CpG-PTO; (grey squares) liposomal CpG-PDO. Dead cells were excluded by propidium iodide staining.
CpG oligonucleotides have been described to induce B cell proliferation. The effects of free or encapsulated CpG phosphorothioate oligonucleotides (CpG-PTO) (see example 6) on proliferation of murine B cells (FIG. 11A) were compared. […] Induction of B cell proliferation was dependent on the concentration of applied ODN with strong B cell proliferation observed between 50 to 200 nmol/l encapsulated ODN. Similar values were obtained for CpG-ODN encapsulated at different concentrations (between 4.6 μg/μmol lipid to 93.5 μg/μmol lipid). No induction of B cell proliferation was observed using free or encapsulated non-CpG-ODN (FIG. 11B).
CpG phosphorothioate (CpG-PTO) or CpG phosphodiester (CpG-PDO) oligonucleotides (see example 6) were analyzed for the induction of B cell proliferation in free or AVE3-encapsulated form using ODN concentrations between 5 to 200 nmol/l. […]

| Substance | higher amounts necessary to induce the same CTL response [1] | avidity of T cells, liposomal vs. free TRP-2 [2] | induction of B cell proliferation [3] |
| --- | --- | --- | --- |
| free TRP-2: antigenic peptide TRP-2 (SVYDFFVWL), not encapsulated | 10 fold | more polyclonal response of splenocytes consisting of low and high avidity T cells | – |
| non-CpG-ODN: non-CpG-1982-PTO, 5′-TCCAGGACTTCTCTCAGGT-3′, free (DNA, all phosphorothioate, methylation of C not given here) | – | – | No induction |
